Assay: recombinant UMI read abundance after kanamycin selection (control-corrected) (log10(CPM+1)); higher = more efficient recombination; extreme values may be limits of the assay; sequences stand for … in AGTGCAGAGAAAATCGGCCAGTTTTCTCTGCCTGCAGTCCGCATGCCGTGGGACCCCTTGGGTTCTAACCTGTTGCCTAGATTTATGCAGCGGACTGCCTTTCTCCCAAAGTGATAAACCGG…AGGTTGGTTTCACT; site = the 11-nt donor
Procedure, shortened: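 Pooled Escherichia coli screen of donor and donor-binding-loop pairs for the IS621 bridge recombinase. Each pair sits with a 12-nt UMI on a plasmid carrying a promoterless kanamycin gene. The library was co-electroporated with a target plasmid encoding a fixed target and T7-inducible recombinase, then plated with IPTG (0.07 mM) plus kanamycin, or unselected, each in two replicates. Recombinant UMIs were PCR-amplified across the donor–target junction and sequenced. Counts became CPM, averaged over replicates, scaled by control-derived factors and reported as log10(CPM+1).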
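Also: IS621 bridge recombinase in Escherichia coli cells against a fixed T5 target plasmid.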

Going from “CCAGGTGCATGGACCGGTTTTCCCGGTAATCCGTATTTGAG (site CCAGGTGCTCT)” to “CCAGGTGCATGGACCGGTTTTCCCGGTAATCCGTATTTGAG (site CCAGGTGCTGT)”, the “recombinant UMI read abundance (log10)” value falls from 0.843 to 0.

Compared with “CCAGGTGCATGGACCGGTTTTCCCGGTAATCCGTATTTGAG (site CCAGGTGCTTT)”, “CCAGGTTCATGGACCGGTTTTCCCGGTAATCCGTATTTGAT (site CCAGGTACTAT)” is lower in “recombinant UMI read abundance (log10)” value: 0.424 for the first, 0.00235 for the second.

“CCAGGTTCATGGACCGGTTTTCCCGGTAATCCGTATTTGAT (site CCAGGTCCTAT)” and “CCAGGTTCATGGACCGGTTTTCCCGGTAATCCGTATTTGAT (site CCAGGTGCTAT)” are within 0.2 log units of each other in “recombinant UMI read abundance (log10)” value: 0.00776 for the first, 0 for the second.

First: CCAGGTTCATGGACCGGTTTTCCCGGTAATCCGTATTTGAT (site CCAGGTTCTAT)
Second: CCAGGTTCATGGACCGGTTTTCCCGGTAATCCGTATTTGTC (site CCAGGTTCTGA)
The “recombinant UMI read abundance (log10)” value of the first is lower: 0.602 for the first, 2.24 for the second.

“CCAGTCACATGGACCGGTTTTCCCGGTAATCCGTATTTGGG (site CAAGTCACTCC)” and “CCAGTCACATGGACCGGTTTTCCCGGTAATCCGTATTTGGG (site CCAGTCACTCC)” are within 0.2 log units of each other in “recombinant UMI read abundance (log10)” value: 0.0155 for the first, 0.026 for the second.

“CCAGTCACATGGACCGGTTTTCCCGGTAATCCGTATTTGGG (site CGAGTCACTCC)” and “CCAGTCACATGGACCGGTTTTCCCGGTAATCCGTATTTGGG (site CTAGTCACTCC)” are within 0.2 log units of each other in “recombinant UMI read abundance (log10)” value: 0.00845 for the first, 0.0251 for the second.

Going from “CCAGTTGCATGGACCGGTTTTCCCGGTAATCCGTATTTGAT (site CCAGATGCTAT)” to “CCAGTTGCATGGACCGGTTTTCCCGGTAATCCGTATTTGAT (site CCAGCTGCTAT)”, the “recombinant UMI read abundance (log10)” value rises from 0.00647 to 0.249.

First: CCAGTTGCATGGACCGGTTTTCCCGGTAATCCGTATTTGAT (site CCAGGTGCTAT)
Second: CCAGTTGCATGGACCGGTTTTCCCGGTAATCCGTATTTGAT (site CCAGTTGCTAT)
The “recombinant UMI read abundance (log10)” value of the first is lower: 0.00995 for the first, 1.42 for the second.

Going from “CCATAAACATGGACCGGTTTTCCCGGTAATCCGTATTTGCT (site CCATAAACTAG)” to “CCATACCCATGGACCGGTTTTCCCGGTAATCCGTATTTGCG (site CCATACCCTCG)”, the “recombinant UMI read abundance (log10)” value falls from 1.06 to 0.287.

“CCATACCCATGGACCGGTTTTCCCGGTAATCCGTATTTGTG (site CCATACCCTCA)” and “CCATCGACATGGACCGGTTTTCCCGGTAATCCGTATTTGTT (site CAATCGACTAA)” are within 0.2 log units of each other in “recombinant UMI read abundance (log10)” value: 0.00448 for the first, 0.00346 for the second.

Going from “CCATCGACATGGACCGGTTTTCCCGGTAATCCGTATTTGTT (site CCATCGACTAA)” to “CCATCGACATGGACCGGTTTTCCCGGTAATCCGTATTTGTT (site CGATCGACTAA)”, the “recombinant UMI read abundance (log10)” value falls from 0.266 to 0.

Going from “CCATCGACATGGACCGGTTTTCCCGGTAATCCGTATTTGTT (site CTATCGACTAA)” to “CCATGAGCATGGACCGGTTTTCCCGGTAATCCGTATTTGAG (site CCATGAGCTCT)”, the “recombinant UMI read abundance (log10)” value rises from 0.0452 to 0.662.

First: CCATGATCATGGACCGGTTTTCCCGGTAATCCGTATTTGAA (site CCATGATCTTT)
Second: CCATTATCATGGACCGGTTTTCCCGGTAATCCGTATTTGCT (site CCATTATCTAG)
The “recombinant UMI read abundance (log10)” value of the first is lower: 1.02 for the first, 1.49 for the second.

“CCATTATCATGGACCGGTTTTCCCGGTAATCCGTATTTGCT (site CGATCATCTAG)” and “CCATTCTCATGGACCGGTTTTCCCGGTAATCCGTATTTGGG (site CCATTCTCTCC)” are the same in “recombinant UMI read abundance (log10)” value: 0 for the first, 0 for the second.

“CCATTCTCATGGACCGGTTTTCCCGGTAATCCGTATTTGGG (site CCCTTCTCTCC)” and “CCATTCTCATGGACCGGTTTTCCCGGTAATCCGTATTTGGG (site CCGTTCTCTCC)” are within 0.2 log units of each other in “recombinant UMI read abundance (log10)” value: 0.00367 for the first, 0.00306 for the second.

Going from “CCATTCTCATGGACCGGTTTTCCCGGTAATCCGTATTTGGG (site CCTTTCTCTCC)” to “CCATTTACATGGACCGGTTTTCCCGGTAATCCGTATTTGCT (site CCATTTACTAG)”, the “recombinant UMI read abundance (log10)” value rises from 0.0196 to 0.933.

“CCATTTACATGGACCGGTTTTCCCGGTAATCCGTATTTGCT (site CCCTTTACTAG)” and “CCATTTACATGGACCGGTTTTCCCGGTAATCCGTATTTGCT (site CCGTTTACTAG)” are the same in “recombinant UMI read abundance (log10)” value: 0 for the first, 0 for the second.

“CCATTTACATGGACCGGTTTTCCCGGTAATCCGTATTTGCT (site CCTTTTACTAG)” and “CCCAACCCATGGACCGGTTTTCCCGGTAATCCGTATTTGTG (site CCCAACCCTCA)” are within 0.2 log units of each other in “recombinant UMI read abundance (log10)” value: 0.00937 for the first, 0.0205 for the second.

Compared with “CCCACCGCATGGACCGGTTTTCCCGGTAATCCGTATTTGCC (site CCCACCGCTGG)”, “CCCAGATCATGGACCGGTTTTCCCGGTAATCCGTATTTGGA (site CCCAGATCTTC)” is lower in “recombinant UMI read abundance (log10)” value: 0.815 for the first, 0.0263 for the second.

Going from “CCCAGGACATGGACCGGTTTTCCCGGTAATCCGTATTTGCG (site CCCAGGACTCG)” to “CCCAGGGCATGGACCGGTTTTCCCGGTAATCCGTATTTGTG (site CCCAGGGCTCA)”, the “recombinant UMI read abundance (log10)” value falls from 0.893 to 0.475.

“CCCATATCATGGACCGGTTTTCCCGGTAATCCGTATTTGCC (site CCCATATCTGA)” and “CCCATATCATGGACCGGTTTTCCCGGTAATCCGTATTTGCC (site CCCATATCTGC)” are the same in “recombinant UMI read abundance (log10)” value: 0 for the first, 0 for the second.

“CCCATATCATGGACCGGTTTTCCCGGTAATCCGTATTTGCC (site CCCATATCTGG)” and “CCCATATCATGGACCGGTTTTCCCGGTAATCCGTATTTGCC (site CCCATATCTGT)” are within 0.2 log units of each other in “recombinant UMI read abundance (log10)” value: 0.328 for the first, 0.454 for the second.

First: CCCATATCATGGACCGGTTTTCCCGGTAATCCGTATTTGTG (site CCCATATCTAA)
Second: CCCATATCATGGACCGGTTTTCCCGGTAATCCGTATTTGTG (site CCCATATCTCA)
The “recombinant UMI read abundance (log10)” value of the first is lower: 0.00783 for the first, 0.356 for the second.

“CCCATATCATGGACCGGTTTTCCCGGTAATCCGTATTTGTG (site CCCATATCTGA)” and “CCCATATCATGGACCGGTTTTCCCGGTAATCCGTATTTGTG (site CCCATATCTTA)” are within 0.2 log units of each other in “recombinant UMI read abundance (log10)” value: 0 for the first, 0.0103 for the second.

“CCCATGTCATGGACCGGTTTTCCCGGTAATCCGTATTTGTC (site CCCATATCTGA)” and “CCCATGTCATGGACCGGTTTTCCCGGTAATCCGTATTTGTC (site CCCATCTCTGA)” are the same in “recombinant UMI read abundance (log10)” value: 0 for the first, 0 for the second.

First: CCCATGTCATGGACCGGTTTTCCCGGTAATCCGTATTTGTC (site CCCATGTCTGA)
Second: CCCATGTCATGGACCGGTTTTCCCGGTAATCCGTATTTGTC (site CCCATTTCTGA)
The “recombinant UMI read abundance (log10)” value of the first is higher: 1.64 for the first, 0 for the second.

“CCCATTTCATGGACCGGTTTTCCCGGTAATCCGTATTTGTC (site CCCATATCTGA)” and “CCCATTTCATGGACCGGTTTTCCCGGTAATCCGTATTTGTC (site CCCATCTCTGA)” are the same in “recombinant UMI read abundance (log10)” value: 0 for the first, 0 for the second.

“CCCATTTCATGGACCGGTTTTCCCGGTAATCCGTATTTGTC (site CCCATGTCTGA)” and “CCCATTTCATGGACCGGTTTTCCCGGTAATCCGTATTTGTC (site CCCATTTCTGA)” are the same in “recombinant UMI read abundance (log10)” value: 0 for the first, 0 for the second.

Compared with “CCCCAATCATGGACCGGTTTTCCCGGTAATCCGTATTTGTG (site CCCCAATCTCA)”, “CCCCACACATGGACCGGTTTTCCCGGTAATCCGTATTTGAA (site CCCCACACTTA)” is lower in “recombinant UMI read abundance (log10)” value: 0.678 for the first, 0.0109 for the second.

First: CCCCACACATGGACCGGTTTTCCCGGTAATCCGTATTTGAA (site CCCCACACTTC)
Second: CCCCACACATGGACCGGTTTTCCCGGTAATCCGTATTTGAA (site CCCCACACTTG)
The “recombinant UMI read abundance (log10)” value of the first is higher: 0.33 for the first, 0 for the second.

Going from “CCCCACACATGGACCGGTTTTCCCGGTAATCCGTATTTGAA (site CCCCACACTTT)” to “CCCCACACATGGACCGGTTTTCCCGGTAATCCGTATTTGTA (site ACCCACACTTA)”, the “recombinant UMI read abundance (log10)” value falls from 0.557 to 0.0144.

“CCCCACACATGGACCGGTTTTCCCGGTAATCCGTATTTGTA (site CACCACACTTA)” and “CCCCACACATGGACCGGTTTTCCCGGTAATCCGTATTTGTA (site CCACACACTTA)” are within 0.2 log units of each other in “recombinant UMI read abundance (log10)” value: 0.0132 for the first, 0.0146 for the second.

“CCCCACACATGGACCGGTTTTCCCGGTAATCCGTATTTGTA (site CCCAACACTTA)” and “CCCCACACATGGACCGGTTTTCCCGGTAATCCGTATTTGTA (site CCCCAAACTTA)” are the same in “recombinant UMI read abundance (log10)” value: 0 for the first, 0 for the second.

“CCCCACACATGGACCGGTTTTCCCGGTAATCCGTATTTGTA (site CCCCACACTAA)” and “CCCCACACATGGACCGGTTTTCCCGGTAATCCGTATTTGTA (site CCCCACACTCA)” are within 0.2 log units of each other in “recombinant UMI read abundance (log10)” value: 0.0177 for the first, 0.0202 for the second.
